4 molecules from BindingDB's records for doi:10.1016/j.bmcl.2004.02.106 (Merck Research Laboratories, 2004) can be followed below.

“And” between values parts separate entries of the source, which are not always exact repeats. Identical values can stand only once.

Sphingosine 1-phosphate receptor 5 (Homo sapiens), sequence (Q9H228 whole entry, looked up): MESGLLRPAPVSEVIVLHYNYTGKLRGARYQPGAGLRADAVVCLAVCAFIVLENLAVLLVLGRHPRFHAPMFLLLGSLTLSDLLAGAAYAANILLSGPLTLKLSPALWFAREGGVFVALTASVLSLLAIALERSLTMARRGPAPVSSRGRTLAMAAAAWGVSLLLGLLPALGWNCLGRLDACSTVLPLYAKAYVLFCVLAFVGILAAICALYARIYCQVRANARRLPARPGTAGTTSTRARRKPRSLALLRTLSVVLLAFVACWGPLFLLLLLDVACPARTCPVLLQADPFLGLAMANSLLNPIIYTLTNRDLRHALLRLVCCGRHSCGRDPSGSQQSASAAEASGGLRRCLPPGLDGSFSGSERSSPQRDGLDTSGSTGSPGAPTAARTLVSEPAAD

This experiment has as its target Sphingosine 1-phosphate receptor 5 (Homo sapiens) (UniProt Q9H228). The experiment can be described thus: Inhibition of [33P]-S1P binding to human Sphingosine 1-phosphate receptor 5 expressed on CHO cell membranes.
Consider `CCCCCCCCc1ccc(CCC(N)C(=O)C[PH](O)(O)O)cc1` (centres undefined), for which the IC50 was 240 nM and 76 nM.
Regarding `CCCCCCCCc1ccc(CCC(N)CCC(=O)O)cc1` (centres undefined) [4-Amino-6-(4-octyl-phenyl)-hexanoic acid], the IC50 came out at 1000 nM.
Under `CCCCCCCCc1ccc(CC[C@@H](N)CC(=O)[PH](O)(O)O)cc1` stands 4.5 nM and 33 nM.
Next, `CCCCCCCCc1ccc(CC[C@H](N)CC(=O)[PH](O)(O)O)cc1`: 27 nM and 73 nM.
